The numbers were not newly measured in paper PMC8508678, “Novel P2X7 Antagonist Ameliorates the Early Phase of ALS Disease and Decreases Inflammation and Autophagy in SOD1-G93A Mouse Model” (International Journal of Molecular Sciences, 2021), which cites them from elsewhere.

Each structure is given as a SMILES string. Like-named read-outs stand apart in the source and are kept apart here.

Data set [1] has as its system SOD1-G93A mice. Also noted: key to Motor behavior / Survival: The symbol ↑ refers to upregulation; ↓ to downregulation; = indicates no change with respect to the vehicle-treated SOD1-G93A mice.
The test system of data set [2] is SOD1-G93A mice. Details: key to Motor Neuron loss: The symbol ↑ refers to upregulation; ↓ to downregulation; = indicates no change with respect to the vehicle-treated SOD1-G93A mice.
Data set [3] concerns SOD1-G93A mice. Details: key to NF-κB / NOX2 / P2X7 / ARG1 / CD68 / GFAP / LC3B-II: The symbol ↑ refers to upregulation; ↓ to downregulation; = indicates no change with respect to the vehicle-treated SOD1-G93A mice.
Where [4] appears, read: ALS mice, four times per week starting at post-natal day 60 ref 41.
Setting [5] is: SOD1-G93A mice, vs vehicle ref 28, 29.
[6] abbreviates: SOD1-G93A mice, vs vehicle ref 31.

With `O=C(NCC1(N2CCN(c3ccccc3)CC2)CCOCC1)c1cccnc1Sc1ccccc1` [JNJ-47965567], in the data set on SOD1-G93A mice [1] (setting [4]), the “disease onset, body weight loss and motor parameters” value was “able to delay disease onset, reduce body weight loss, and improve the motor parameters”; the “survival or motor neuron number” value is “without affecting”. Also, the “survival, disease progression, molecular and cellular parameters of ALS” value with SOD1-G93A mice [1] (SOD1-G93A mice, three times per week from the early symptomatic phase ref 32) is “totally failed”.
`CCOc1ccc(Nc2ccc(/C(=C3C=C/C(=[N+](/CC)Cc4cccc(S(=O)(=O)[O-])c4)C=C/3C)c3ccc(N(CC)Cc4cccc(S(=O)(=O)O)c4)cc3C)cc2)cc1` [BBG, brilliant blue G]: the “motor neuron survival in the lumbar spinal cord” value in the data set on SOD1-G93A mice [2] (SOD1-G93A mice ref 29) was “enhances”. Besides, the microgliosis entry with SOD1-G93A mice [3] (SOD1-G93A mice ref 29) is on record as “reduces”. In the data set on SOD1-G93A mice [3] (setting [5]), the GFAP result was “=” and the P2X7 entry is on record as “=”. The disease onset entry in the data set on SOD1-G93A mice [1] (ALS mice, modest improvement in general conditions and motor performance ref 29) is recorded as “induces a delay of disease onset”. In addition, the Survival result with SOD1-G93A mice [1] (setting [5]) was “=”.
On to `C[C@H](N=C(NC#N)Nc1cccc2ncccc12)c1ccccc1` [A804598], for which the “Motor Neuron loss” value with SOD1-G93A mice [2] (setting [6]) is listed as “=”. Also, in the data set with SOD1-G93A mice [3] (SOD1-G93A mice ref 31), the “P2X7 expression levels in the spinal cord” value is on record as “failed to affect”; the “autophagic substrate p62 accumulating in vivo” value was “decreases”; the “motor neuron loss or astrogliosis and microgliosis in the spinal cord” value is reported as “neither A804598 nor AXX13 treatments affected”. Besides, in the data set with SOD1-G93A mice [3] (setting [6]), the ARG1 result is “=”, the CD68 entry is “=”, the GFAP entry is on record as “=” and the LC3B-II result is “=”. In addition, in the data set on SOD1-G93A mice [3] (setting [6]), the NF-κB entry is recorded as “=”, the NOX2 result is “=” and the P2X7 result is given as “=”. For the same molecule, the “IL-1β mRNA expression” value with SOD1-G93A mice [3] (SOD1-G93A mice, only this inflammatory marker affected ref 31) is reported as “downregulated”. Further, in the data set with SOD1-G93A mice [1] (SOD1-G93A mice ref 31), the “amelioration of disease progression” value was “failed”. In addition, in the data set with SOD1-G93A mice [1] (setting [6]), the Motor behavior entry is “=” and the Survival entry is given as “=”.
